Reference: paper PMC6524645 (Cell, 2018)

B1: E. coli SelO (ydiU) C272A mutant (enzyme, UniProt P77649 1-478, looked up)
chain: MTLSFVTRWRDELPETYTALSPTPLNNARLIWHNTELANTLSIPSSLFKNGAGVWGGEALLPGMSPLAQVYSGHQFGVWAGQLGDGRGILLGEQLLADGTTMDWHLKGAGLTPYSRMGDGRAVLRSTIRESLASEAMHYLGIPTTRALSIVTSDSPVYRETAEPGAMLMRVAPSHLRFGHFEHFYYRRESEKVRQLADFAIRHYWSHLADDEDKYRLWFSDVVARTASLIAQWQTVGFAHGVMNTDNMSLLGLTLDYGPFGFLDDYEPGFIANHSDHQGRYSFDNQPAVALWNLQRLAQTLSPFVAVDALNEALDSYQQVLLTHYGERMRQKLGFMTEQKEDNALLNELFSLMARERSDYTRTFRMLSLTEQHSAASPLRDEFIDRAAFDDWFARYRGRLQQDEVSDSERQQLMQSVNPALVLRNWLAQRAIEAAEKGDMTELHRLHEALRNPFSDRDDDYVSRPPDWGKRLEVSCSS
modifications: intermolecular disulfide between the two copies (cysteine not named)

Key:
P. syringae SelO = P. syringae SelO (Pseudomonas syringae group genomosp. 3, UniProt Q87VB1); assay: X-ray crystal structure, […] Å; type: binding; details: active site, nucleotide flipped; Mg2+ and Ca2+ bound; pH 8; 20 °C
non-reducing SDS-PAGE = molecular target: the molecule itself; assay: non-reducing SDS-PAGE

P. syringae SelO, sequence (Q87VB1 whole entry): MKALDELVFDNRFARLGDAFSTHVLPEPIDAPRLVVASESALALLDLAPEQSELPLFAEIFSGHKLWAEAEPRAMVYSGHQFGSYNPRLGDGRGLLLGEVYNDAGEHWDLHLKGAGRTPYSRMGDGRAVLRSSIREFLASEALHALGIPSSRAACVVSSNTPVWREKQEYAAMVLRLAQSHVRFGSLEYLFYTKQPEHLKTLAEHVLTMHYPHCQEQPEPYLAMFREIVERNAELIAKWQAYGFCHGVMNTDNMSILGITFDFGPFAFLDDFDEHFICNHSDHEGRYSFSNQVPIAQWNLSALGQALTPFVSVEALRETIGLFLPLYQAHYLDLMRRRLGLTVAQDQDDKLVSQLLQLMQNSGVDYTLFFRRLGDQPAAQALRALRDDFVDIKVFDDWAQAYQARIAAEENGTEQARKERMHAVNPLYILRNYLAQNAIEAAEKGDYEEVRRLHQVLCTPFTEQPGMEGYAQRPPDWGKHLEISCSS

Molecule | X-ray crystal structure, 2.27 Å (P. syringae SelO) | stoichiometry N (non-reducing SDS-PAGE)
Nc1ncnc2c1ncn2[C@@H]1O[C@H](COP(=O)(O)OP(=O)(O)NP(=O)(O)O)[C@@H](O)[C@H]1O [AMP-PNP] | bound to an ATP derivative AMP-PNP | –
B1 | – | 2
